Reference: patent US7807368B2, “Cyclin-dependent kinase inhibitors as targets for opiod growth factor treatment” (priority 2006, dated 2010)
Entries after “also recorded” stand apart in the source; their conditions may differ.

Assays:
[1] = tested on: Rabbit Tenon's Fibroblast cells (RTCFs); assay: Cell counts of Rabbit Tenon's Fibroblast cells; assay type: cell-based; details: 72 hours
Description: OGF in dosages ranging from 10−4 to 10^−7 M were added to 24-well cultures for 72 hours; sterile water served as control. Drug or vehicle, and media were changed daily. Cell counts of Rabbit Tenon's Fibroblast cells (RTCFs) treated with OGF (10^−7 to 10^−5 M) were 28%, 33%, and 37% smaller than controls (p<0.001).

SCC-1 cells = assay: Growth of SCC-1 cells transfected with p16 siRNA or negative control siRNA; assay type: cell-based, human; details: 10^-6 M OGF; for reduction in growth: negative control siRNA-transfected SCC-1 cells
Description: (§1) The p16-targeted siRNAs (antisense:5′ […]-3′; sense (SEQ ID NO:5): 5′ […]-3′(SEQ ID NO:6) were obtained as ready-annealed, purified duplex probes (Invitrogen, Carlsbad, Calif.). For transfection, 2×10^5 cells per well were seeded in 6-well plates containing 1 ml of serum-free media without antibiotics. In each well, 20 nM of p16-siRNA or control siRNA solutions in serum-free media were added. Cells were incubated for 4 h at 37° C. prior to the addition of OGF. Cultures were incubated for additional 20 h, and then 1 ml fresh complete media either lacking or containing OGF was added. At the indicated time points, cells were collected for growth curves or Western blotting. Three or more independent experiments were conducted. The control siRNAs were purchased from Ambion.

p16 [2] = assay: Western blot of p16, other CKIs and Cdk4 in SCC-1 cells; assay type: cell-based, human
Description: Synchronized cells (˜2×10^6) from each treatment were solubilized in 200 μl RIPA buffer (1×PBS, 10 μM IGEPAL, 1 mg/ml SDS, 5 mg/ml deoxycholic acid), containing protease and phosphatase inhibitors (2 μg/ml aprotinin, 3 mg/ml phenylmethyl sulfonyl fluoride (PMSF), 1 mM sodium orthovanidate, 1 μM okadaic acid). Total protein concentrations were measured using the DC protein assay kit (Bio-Rad Laboratories, Hercules, Calif.). Equal amounts of protein (40 μg) were subjected to 10% SDS-PAGE followed by transfer of proteins onto polyvinylidene difluoride (Millipore, Billerica, Mass.) using standard protocols. The following antibodies were purchased from commercial sources: phospho-Rb (Ser795), phospho-Rb (Ser807/811) (Cell Signaling Technology, Beverly, Mass.); phospho-Rb (Thr821) (Biosource, Camarillo, Calif.); Cdk4, cyclin D1, p15, p16, p18, p19 (Santa Cruz Biotechnology, Santa Cruz, Calif.); total Rb, p21, p27 (BD PharMingen, San Diego, Calif.); β-actin (Clone AC-15, Sigma). The following dilutions of primary antibodies were used to detect respective proteins. 1:200 phospho-Rb (Ser795), 1:200 phospho-Rb (Ser807/811); 1:200 phospho-Rb (Thr821); 1:200 Cdk4, 1:200 cyclin D1, 1:100 p16; 1:200 total Rb, 1:200 p21, 1:100 p27. Membranes were probed with secondary anti-rabbit or anti-mouse horseradish peroxidase-conjugated antibodies (GE Healthcare-Amersham Biosciences, Piscataway, N.J.); blots were developed using a chemiluminescence Western blotting detection system (GE Healthcare-Amersham Biosciences).
To determine equal loading of total protein samples, blots were reprobed with monoclonal antibody against β-actin at a dilution of 1:2000. If necessary, membranes were stripped in stripping buffer (62.5 mM Tris-HCl and 100 mM β-mercaptoethanol/2% SDS, pH 6.7) at 50° C. before being re-probed. Means and SE were determined from 3 or more independent experiments.
To quantify expression levels or kinase activity, the optical density of each band was determined by densitometry and analyzed by QuickOne (Bio-Rad Laboratories). Each value was normalized to β-actin from the same blot. To report the changes due to OGF treatment, the fold increase was calculated by dividing the normalized value from the OGF treated samples by the normalized value of control samples at each time point; thus, increases due to OGF have values greater than one, and decreases due to OGF have values less than one.
as §1

p16 [3] = assay: Western blot of p16 in CAL-27 cells; assay type: cell-based, human; details: synchronized CAL-27 cells, 9 h
Description: The SCC-1 (UM-SCC-1) cell line was obtained from the University of Michigan Cancer Research Laboratory, and CAL-27 and SCC-4 cells were obtained from the American Type Culture Collection (Manassas, Va.). SCC-1 and CAL-27 cells were cultured in DMEM media, whereas SCC-4 cells were grown in 1:1 Hams F-12 DMEM media. All media was supplemented with 10% fetal bovine serum (HyClone, Logan, Utah), 1.2% sodium bicarbonate, and 5000 units/ml penicillin, 5 μg/ml streptomycin and 10 μg/ml neomycin. OGF was purchased from Sigma-Aldrich (St. Louis, Mo.), dissolved in sterile water, and used at a final concentration of 10^−6 M.
Synchronized cells (˜2×10^6) from each treatment were solubilized in 200 μl RIPA buffer (1×PBS, 10 μM IGEPAL, 1 mg/ml SDS, 5 mg/ml deoxycholic acid), containing protease and phosphatase inhibitors (2 μg/ml aprotinin, 3 mg/ml phenylmethyl sulfonyl fluoride (PMSF), 1 mM sodium orthovanidate, 1 μM okadaic acid). Total protein concentrations were measured using the DC protein assay kit (Bio-Rad Laboratories, Hercules, Calif.). Equal amounts of protein (40 μg) were subjected to 10% SDS-PAGE followed by transfer of proteins onto polyvinylidene difluoride (Millipore, Billerica, Mass.) using standard protocols. […]

**Q.** How did the “decrease in cell proliferation compared to RTCFs treated with 10^-6 M OGF” value ([1]; 10^-4 M OGF) turn out when [Met^5]-enkephalin [OGF] was run?
**A.** Its value is 22%.

**Q.** What about the “decrease in cell proliferation compared to RTCFs treated with 10^-7 M OGF” value ([1]; 10^-4 M OGF) of the same substance?
**A.** The value was 26%.

**Q.** And the “decrease in proliferation compared to controls” value ([1]; 10^-4 M OGF)?
**A.** Its value is 47%.

**Q.** And the “Cell counts smaller than controls” value ([1]; 10^-5 M OGF)?
**A.** Its value is 37%.

**Q.** What about the “Cell counts smaller than controls” value ([1]; 10^-6 M OGF) of the same substance?
**A.** The value was 33%.

**Q.** What about the “Cell counts smaller than controls” value ([1]; 10^-7 M OGF) of the same substance?
**A.** Its value is 28%.

**Q.** And the “Cell numbers vs control levels” value (SCC-1 cells; FIG. 4 growth curves, p<0.05)?
**A.** Its value is “significantly reduced”.

**Q.** And the reduction in growth (SCC-1 cells; 72 h)?
**A.** The reduction in growth was 24%.

**Q.** What about the reduction in growth (SCC-1 cells; 96 h) of the same substance?
**A.** Its reduction in growth is 40%.

**Q.** And the “expression of cell cycle inhibitors p15, p18, p19, p21 and p27” value (p16 [2]; OGF treatment of SCCHN)?
**A.** Its value is “no significant effect”.

**Q.** What about the “expression of Cdk4 protein” value (p16 [2]; following OGF exposure) of the same substance?
**A.** Its value is “did not change”.

**Q.** And the p16 expression (p16 [2]; synchronized SCC-1 cells, 3 h, 10^-6 M OGF, 10^-5 M naloxone)?
**A.** Its p16 expression is “significantly upregulated; also recorded: significantly elevated”.

**Q.** What about the “p16 expression relative to controls” value (p16 [3]) of the same substance?
**A.** Its value is “increased p16 expression”.
